Patent US4921847A, “Trihalo(amine)gold(III) anti-tumor complexes” (Engelhard Corporation, priority 1989, dated 1990)
Where “and” joins values, the source holds several entries; their conditions need not be identical. Equal values may be shown once.

Tests used:
[1] = tested on: Sarcoma 180 tumors; test: Therapeutic index (LD50/ED90), implanted Sarcoma 180 tumors; format: in vivo, Swiss white mice; set-up: ED90: unit not given here; settings: for Therapeutic Index: LD50/ED90; for Maximum % ILS (Dosage): S 180 ascites; for ED90: dose giving 50% increase in life span for 90% of the animals, determined graphically
[2] = Solubility; format: physicochemical
[3] = tested on: S180 ascites; test: Anti-tumor evaluation against S180 ascites in mice (% increase in life span, survivors); format: in vivo, female CFW Swiss mice; settings: for Survivors: day of evaluation; for Anti-tumor activity (in words): 50% ILS criterion; for % ILS against criterion for anti-tumor activity: failed to meet the 50% ILS criterion
Protocol: The above prepared compounds were evaluated against S180 ascites in female CFW Swiss mice. The mice were weighed (average weight: 20 g), placed into cages (six mice to a cage) and on day zero the mice were inoculated with 0.2 ml of a freshly prepared saline suspension (0.15 M NaCl) containing 1×10^7 tumor cells/ml or a total of 2×10^6 cells. This inoculum was freshly prepared using "transfer" mice which had been injected with tumor cells the previous week; it was obtained via the following steps: (1) the removal of cells from the peritoneal cavity of the sacrificed transfer mouse, (2) alternate centrifugation and washing operations (2-3 times with cold saline) to remove blood and other components, and (3) dilution of the volume of the packed cell with saline (1:3). A final centrifugation was carried out at 1000 RPM over a two minute period. A cell count was made on a 2,000-fold dilution of this 1:3 suspension by means of a Coulter Counter. A final dilution to 1×10^7 cells/ml was made based on the average count.
On day 1, solutions of the test compounds were prepared and each mouse in a set of six were injected with the same test compound at the same dosage. The doses were based on the average weight of the animals (cage weight). Also, beginning on day 1 two controls were employed containing six mice per control:
(1) Normal Control: This consisted solely of the carrier or diluent used in combination with the test compound; and
(2) Positive Control: This consisted solely of the known anti-tumor agent cis-[Pt(NH3)2 Cl2 ] (Cisplatin) in saline (8 mg/kg) to test the response of the biological system.
The effectiveness of a test compound was measured in terms of the % increase in life span (%ILS) of the test mice relative to the Normal Control (Calculated from the day of tumor inoculation, i.e., day zero). To standardize the test data and permit intercomparisons, the day of evaluation was arbitrarily taken as that day corresponding to twice the mean life span (or average day of death) of the control. This established a practical upper limit of 100% on the %ILS attainable. For calculation purposes the survivors on the day of evaluation were considered to have died on that day. The %ILS was calculated as follows: [formula] ILS values in excess of 50% were interpreted as being indicative of anti-tumor activity, whereas, values in excess of 75% indicated excellent activity.
The products of Examples 1, 4, 10 and 11 were administered in a freshly prepared 1% sodium bicarbonate solution; the remaining test compounds were administered as slurries in 0.5% "Klucel" (hydroxypropylcellulose).

[4] = tested on: Sarcoma 180 tumors; settings: comparison value; cited from earlier work

Compound	Therapeutic Index [1]	ED90 [1]	solubility in 1% sodium bicarbonate solution [2] [mg/mL]	% ILS ([3]; S 180 ascites, 10 mg/kg) [%]	Survivors ([3]; S 180 ascites, 10 mg/kg)	% ILS ([3]; S 180 ascites, 20 mg/kg) [%]	Survivors ([3]; S 180 ascites, 20 mg/kg)	% ILS ([3]; S 180 ascites, 40 mg/kg) [%]	Survivors ([3]; S 180 ascites, 40 mg/kg)	% ILS ([3]; S 180 ascites, 80 mg/kg) [%]	Survivors ([3]; S 180 ascites, 80 mg/kg)	% ILS ([3]; S 180 ascites, 160 mg/kg) [%]	Survivors ([3]; S 180 ascites, 160 mg/kg)	% ILS ([3]; S 180 ascites, 320 mg/kg) [%]	Survivors ([3]; S 180 ascites, 320 mg/kg)	Maximum % ILS (Dosage) ([1]; 40 mg/kg) [%]	Anti-tumor activity (in words) ([3]; S 180 ascites)	further results
O=C(O)c1ccc[n+]([Au-]([Cl])([Cl])[Cl])c1 [Example 1, Trichloro(Nicotinic Acid)Gold(III)]	5.8	31	12.8	-3	0 of 6	60	3 of 6	91	3 of 6	98	4 of 6	1	0 of 6	-69	0 of 6	–	–	Maximum % ILS (Dosage) ([1]; 80 mg/kg): 98%; peak ILS values ([3]; S 180 ascites): > 90%
Cn1cc[n+]([Au-]([Cl])([Cl])[Cl])c1 [Example 2, Trichloro(N-Methylimidazole)Gold(III)]	2.8	31	–	14	0 of 6	33	1 of 6	91	4 of 6	53	1 of 6	-93	0 of 6	–	–	91	decidedly active	peak ILS values ([3]; S 180 ascites): > 90%; % ILS ([3]; S 180 ascites, 5 mg/kg): 2%; Survivors ([3]; S 180 ascites, 5 mg/kg): 0 of 6; active dose range ([3]; S 180 ascites, decidedly active within the range): 20 to 40 mg/kg
CC(=O)c1ccc[n+]([Au-]([Cl])([Cl])[Cl])c1 [Example 3, trichloro(3-acetylpyridine)gold(III)]	4.5	31	–	-5	0 of 6	42	1 of 6	97	5 of 6	66	4 of 6	23	0 of 6	-90	0 of 6	97	–	peak ILS values ([3]; S 180 ascites): > 90%
O=C(O)Cc1ccc[n+]([Au-]([Cl])([Cl])[Cl])c1 [Example 4, trichloro(3-pyridyacetic acid)gold(III)]	1.8	84	12.8	6	0 of 6	-15	0 of 6	63	1 of 6	57	1 of 6	-41	0 of 6	-90	0 of 6	63	pronounced antitumor effect	–
Oc1ccc[n+]([Au-]([Cl])([Cl])[Cl])c1 [Example 5]	–	87	–	9	0 of 6	39	2 of 6	61	3 of 6	30	2 of 6	-36	0 of 6	-85	0 of 6	61	–	–
OCc1ccc[n+]([Au-]([Cl])([Cl])[Cl])c1 [Example 6]	2.1	43	–	6	0 of 6	63	1 of 6	85	3 of 6	46	0 of 6	-70	0 of 6	-93	0 of 6	85	–	–
[Cl][Au]([Cl])[Cl].c1ccncc1 [Example 7, trichloro(pyridine)gold(III)]	–	35	–	45	3 of 6	71	2 of 6	66	3 of 6	-6	2 of 6	-94	0 of 6	-94	0 of 6	–	–	Maximum % ILS (Dosage) ([1]; 20 mg/kg): 71%
[Cl][Au-]([Cl])([Cl])[n+]1cc[nH]c1 [Example 8, trichloro(imidazole)gold(III)]	–	–	–	-7	0 of 6	1	1 of 6	-16	0 of 6	37	1 of 6	37	2 of 6	–	–	–	considered to be inactive	% ILS ([3]; S 180 ascites, 5 mg/kg): 5%; Survivors ([3]; S 180 ascites, 5 mg/kg): 0 of 6; Anti-tumor activity (in words) ([3]; S 180 ascites, listed as trichloro(imidazole)gold(III)): inactive in bringing about a regression of S 180 ascites at all doses tested; % ILS against criterion for anti-tumor activity [3]: < 50%
Cn1cc[n+]([Au-]([Br])([Br])[Br])c1 [Example 9, Tribromo(N-Methylimidazole)Gold(III)]	2.0	42	–	5	0 of 6	76	4 of 6	66	3 of 6	-1	1 of 6	-94	0 of 6	-94	0 of 6	–	–	Maximum % ILS (Dosage) ([1]; 20 mg/kg): 76%
O=C(O)c1ccc[n+]([Au-]([Br])([Br])[Br])c1 [Example 10]	–	–	12.8	-23	0 of 6	26	0 of 6	64	2 of 6	49	0 of 6	-19	0 of 6	-95	0 of 6	–	–	–
O=C(O)Cc1ccc[n+]([Au-]([Br])([Br])[Br])c1 [Example 11, tribromo(3-pyridylacetic acid)gold(III)]	–	–	12.8	-16	0 of 6	20	0 of 6	10	0 of 6	31	1 of 6	-21	0 of 6	-92	0 of 6	–	considered to be inactive	Anti-tumor activity (in words) ([3]; S 180 ascites, listed as tribromo(3-pyridylacetic acid)gold(III)): inactive as an anti-tumor agent; % ILS against criterion for anti-tumor activity [3]: < 50%
cis-[Pt(NH3)2 Cl2 ] [Cisplatin, reference compound]	–	–	–	–	–	–	–	–	–	–	–	–	–	–	–	–	–	Therapeutic index attributed to commercially available Cisplatin [4]: 2.2-2.5; Positive Control Survivors ([3]; S 180 ascites, Cisplatin in saline, 8 mg/kg, one value per test series, listed as Positive Control): 0 of 6 and 4 of 6 and 6 of 6 and 1 of 6
